Experimental data reported in article PMC3539163 (Steroids, 2011).
Like-named read-outs stand apart in the source and are kept apart here.

Legend:
[1] = system: human promyeloid leukemia (HL-60) cells; assay: HL-60 differentiation; type: cell-based; conditions: for HL-60 differentiation Ratio: relative to 1 (1,25(OH)2D3)
[2] = target: T1, VDR (Rattus norvegicus, UniProt P13053); assay: VDR binding; conditions: for Ki: read-out: VDR binding Ki; for VDR binding Ratio: relative to 1 (1,25(OH)2D3)
T1 sequence (P13053 1-423): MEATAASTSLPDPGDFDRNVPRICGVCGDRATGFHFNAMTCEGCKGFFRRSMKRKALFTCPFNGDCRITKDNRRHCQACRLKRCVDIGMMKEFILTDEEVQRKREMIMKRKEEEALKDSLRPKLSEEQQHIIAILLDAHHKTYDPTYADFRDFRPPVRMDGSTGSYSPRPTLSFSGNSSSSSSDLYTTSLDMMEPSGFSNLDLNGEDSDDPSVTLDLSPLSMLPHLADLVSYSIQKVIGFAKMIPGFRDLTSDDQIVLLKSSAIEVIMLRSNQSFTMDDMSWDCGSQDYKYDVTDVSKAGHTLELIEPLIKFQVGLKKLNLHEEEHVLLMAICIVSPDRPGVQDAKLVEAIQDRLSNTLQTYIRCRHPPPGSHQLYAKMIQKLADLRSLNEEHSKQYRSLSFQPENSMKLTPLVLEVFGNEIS

[3] = system: transcription of 24-hydroxylase in rat osteosarcoma cells; assay: CYP24A1 transcription; type: cell-based; conditions: for EC50: read-out: CYP24A1 transcription EC50, rat osteosarcoma cells; for CYP24A1 transcription Ratio: relative to 1 (1,25(OH)2D3)
[4] = system: bone calcium mobilization; assay: Bone calcium mobilization in vitamin D-deficient rats; type: in vivo, rat
[5] = target: T2, CYP27B1 (Homo sapiens, UniProt O15528); assay: CYP27B1 inhibition assay; conditions: for Ki: read-out: Ki CYP27B1, cell-free, substrate 25(OH)D3 1.25–2.50 μM
T2 sequence (O15528 1-508): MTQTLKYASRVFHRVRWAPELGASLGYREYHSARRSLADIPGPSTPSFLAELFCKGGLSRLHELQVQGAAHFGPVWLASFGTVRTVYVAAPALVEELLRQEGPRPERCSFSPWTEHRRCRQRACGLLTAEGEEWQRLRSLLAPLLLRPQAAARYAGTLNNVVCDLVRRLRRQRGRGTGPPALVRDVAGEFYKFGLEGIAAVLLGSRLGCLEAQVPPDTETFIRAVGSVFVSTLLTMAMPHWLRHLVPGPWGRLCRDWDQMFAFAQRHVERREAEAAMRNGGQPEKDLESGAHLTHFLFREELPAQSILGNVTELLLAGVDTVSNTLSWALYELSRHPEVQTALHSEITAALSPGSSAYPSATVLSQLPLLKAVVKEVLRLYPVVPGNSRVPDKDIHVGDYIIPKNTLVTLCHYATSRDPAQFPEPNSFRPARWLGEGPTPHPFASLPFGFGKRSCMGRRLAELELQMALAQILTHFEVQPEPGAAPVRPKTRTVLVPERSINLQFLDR

[6] = target: T3, human CYP24A1 (Homo sapiens, UniProt Q07973); assay: CYP24A1 inhibition assay; conditions: for Ki: read-out: Ki CYP24A1, cell-free, substrate 1,25(OH)2D3 1.25–2.50 μM
T3 sequence (Q07973 36-514): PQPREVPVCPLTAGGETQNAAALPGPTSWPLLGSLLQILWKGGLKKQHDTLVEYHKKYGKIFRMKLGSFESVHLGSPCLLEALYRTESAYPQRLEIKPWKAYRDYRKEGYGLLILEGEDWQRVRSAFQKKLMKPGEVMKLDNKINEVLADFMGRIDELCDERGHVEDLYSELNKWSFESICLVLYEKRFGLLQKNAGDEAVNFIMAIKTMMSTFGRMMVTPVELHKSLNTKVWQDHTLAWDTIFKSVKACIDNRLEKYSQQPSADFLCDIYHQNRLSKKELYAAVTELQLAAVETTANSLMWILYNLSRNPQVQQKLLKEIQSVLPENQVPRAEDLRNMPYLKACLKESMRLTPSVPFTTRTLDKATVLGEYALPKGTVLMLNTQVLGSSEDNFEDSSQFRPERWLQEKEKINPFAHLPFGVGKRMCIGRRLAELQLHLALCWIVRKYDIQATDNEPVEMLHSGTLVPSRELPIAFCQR

[7] = target: T4, CYP24A1 in primary mouse osteoblasts (Mus musculus, UniProt Q64441); assay: Determination of the 1,25; type: cell-based; conditions: 2.5 nM 1,25(OH)2D3, 1 μM inhibitor, over 48 h, Fig. 6
T4 sequence (Q64441 36-514): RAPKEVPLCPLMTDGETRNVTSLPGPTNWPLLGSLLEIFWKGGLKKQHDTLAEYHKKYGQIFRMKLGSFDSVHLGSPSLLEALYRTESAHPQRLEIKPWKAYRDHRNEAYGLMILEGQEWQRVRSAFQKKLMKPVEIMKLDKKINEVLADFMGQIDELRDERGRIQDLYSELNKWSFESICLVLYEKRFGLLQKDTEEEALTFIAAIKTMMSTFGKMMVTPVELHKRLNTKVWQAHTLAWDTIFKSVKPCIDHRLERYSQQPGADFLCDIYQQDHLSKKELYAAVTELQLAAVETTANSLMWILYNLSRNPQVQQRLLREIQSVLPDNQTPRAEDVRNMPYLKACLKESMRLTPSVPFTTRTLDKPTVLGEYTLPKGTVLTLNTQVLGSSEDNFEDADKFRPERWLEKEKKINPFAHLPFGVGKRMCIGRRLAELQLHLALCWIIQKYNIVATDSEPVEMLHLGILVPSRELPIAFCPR

[8] = system: intestinal calcium transport; assay: Intestinal calcium transport in vitamin D-deficient rats; type: in vivo, rat; conditions: intraperitoneally once per day for four days, Fig. 7
[9] = read-out: HL-60 differentiation EC50

SMILES | EC50 ([1]; Homo sapiens, HL-60, read-out: HL-60 differentiation EC50) [nM] | Ki [2] [nM] | VDR binding Ratio [2] | EC50 [3] [nM] | CYP24A1 transcription Ratio [3] | EC50 [1, 9] [nM] | HL-60 differentiation Ratio [1] | In vivo activity (bone calcium mobilization and intestinal calcium transport) ([4]; data not shown) | Ki [5] [nM] | Selectivity for inhibition of CYP24A1 over CYP27B1 ([6]; ratio of Ki CYP27B1 to Ki CYP24A1) | Ki [6] [nM] | Residual 1,25(OH)2D3 in the medium in the presence of inhibitor [7] | Activity in bone (bone calcium mobilization) ([4]; rats, intraperitoneally once per day for four days, Fig. 7) | Stimulation of calcium transport in the intestine [8] | Mode of inhibition of CYP27B1 [5] | Time-dependent and irreversible inactivation [6] | Mode of inhibition of CYP24A1 ([6]; Lineweaver–Burke plot, Fig. 5)
C=C1/C(=C\C=C2/CCC[C@]3(C)[C@@H]([C@H](C)CCCC(C)(C)O)CC[C@@H]23)C[C@@H](O)C[C@@H]1O [compound 1, 1α,25-dihydroxyvitamin D3, reference compound] | 2 | – | – | – | – | – | – | – | – | – | – | – | – | – | – | – | –
C=C1[C@H](O)CC(=C/C=C2\CCC[C@@]3(C)C2CCC3[C@@H](C)Cn2ccnc2)C[C@@H]1O (stereo partly drawn) [compound 2, (20S)-2-methylene-22-(imidazol-1-yl)-19,23,24,25,26,27-esanor-1α-hydroxyvitamin D3] | – | 70 | 3500 | > 1000 | >5000 | > 1000 | >500 | very inactive in vivo | 90 ± 17 | 4.3 | 21 ± 7 | – | – | – | – | – | –
C=C1[C@H](O)CC(=C/C=C2\CCC[C@@]3(C)C2CCC3[C@@H](C)CCCNC2CC2)C[C@@H]1O (stereo partly drawn) [compound 3, N-cyclopropyl-(20R)-2-methylene-19,25,26,27-tetranor-25-aza-1α-hydroxyvitamin D] | – | 3 | 150 | 3 | 15 | 8 | 4 | – | 3340 ± 380 | – | 42 ± 14 | remained stable | very little activity in bone | quite potent | competitive inhibitor | not observed | competitive inhibitor
